Results from patent US9040691B2, “Hydroxymethylaryl-substituted pyrrolotriazines as ALK1 inhibitors” (BAYER INTELLECTUAL PROPERTY GMBH, priority 2011, dated 2015).

Key:
[1] = tested on: laser-induced choroidal neovascularisation; experiment: Topical efficacy in the laser-induced choroidal neovascularization (CNV) model; type: in vivo, rat; details: Brown-Norway rats, eye drops 10 μl of 20 mg/ml twice daily; for vascular leakage [HRA score]: angiography day 21, score 0-3; for choroidal neovascularisation lesion size: day 23
Method: B-4. Topical Efficacy in the Laser-Induced Choroidal Neovascularization (CNV) Model
For this purpose, 65 pigmented Brown-Norway rats with no visible sign of ocular defects were selected and randomly assigned to six different groups (for n-numbers, see table below). On day 0, the animals were anaesthetized by an intraperitoneal injection (15 mg/kg xylazine and 80 mg/kg ketamine). After instillation of one drop of 0.5% tropicamide to dilate the pupils, choroidal neovascularisation was induced by burning six holes into the retina (disruption of Bruch's membrane) of one eye per animal using a 532 nm argon laser (lesion size: 50 μm; laser intensity: 150 mW; stimulus duration: 100 ms). Test compounds and vehicle controls were topically administered twice daily by instilling respective eye drops into the affected eye. The test compounds were dosed as follows: 10 μl of an eye drop formulation containing 20 mg/ml of the respective test compound suspended either in 100% liquid paraffin or in an aqueous vehicle (HPMC 15 cP 3.5%, polysorbate 80 0.5%, NaCl 0.9% in water) were applied to the affected eye twice daily at a 10 to 14 hour interval during the complete observation period of 23 days. Control animals received the respective vehicle (100% liquid paraffin or aqueous vehicle) topically twice daily. The body weight of all animals was recorded before the start and once daily during the study.
An angiography was performed on day 21 using a fluorescence fundus camera (Kowe). Here, after anaesthesia and pupillary dilation, 10% sodium fluorescein dye was injected subcutaneously, and images were recorded 2 and 10 min after dye injection. The vascular leakage of the fluorescein on the angiograms was evaluated by three different examiners who were blinded for group allocation (test compound versus vehicle), and scored with 0 (no leakage) to 3 (strongly stained).
On day 23, animals were sacrificed, and eyes were harvested and fixed in 4% paraformaldehyde solution for 1 hour at room temperature. After washing, the retina was carefully peeled, washed, blocked and stained with a FITC-isolectine B4 antibody in order to visualize the vasculature. Then, the sclera-choroids were flat-mounted and examined under a fluorescence microscope (Keyence Biozero) at 488 nm excitation wavelength. The area (in μm^2) of choroidal neovascularization was measured using ImageTool software.

[2] = tested on: laser-induced choroidal neovascularisation; experiment: Systemic efficacy in the laser-induced choroidal neovascularization (CNV) model; type: in vivo, rat; details: Brown-Norway rats, i.p. once daily 50 mg/kg days 0-1 then 20 mg/kg
Method: B-3. Systemic Efficacy in the Laser-Induced Choroidal Neovascularization (CNV) Model
For this purpose, 16 pigmented Brown-Norway rats with no visible sign of ocular defects were selected and randomly divided into two groups of eight animals each. On day 0, the animals were anaesthetized by an intraperitoneal injection (15 mg/kg xylazine and 80 mg/kg ketamine). After instillation of one drop of 0.5% tropicamide to dilate the pupils, choroidal neovascularisation was induced by executing six 75 μm-sized choroidal burns around the optic disc of the right eyes using a 532 nm argon laser photocoagulation at 150 mW for 100 ms. […] The body weight of all animals was recorded before the start and once daily during the study.
An angiography was performed on day 21 using Heidelberg's Retinal Angiograph (HRA). After anaesthesia and pupillary dilation, 10% sodium fluorescein dye was injected subcutaneously, and images were recorded 10 min after dye injection. The vascular leakage of the fluorescein on the angiograms was evaluated by two examiners in a masked fashion and scored with 0 (no leakage) to 3 (strongly stained).
After euthanasia on day 23, the eyes were harvested and fixed in 4% paraformaldehyde solution for 1 hour at room temperature. […] The flat-mounted preparations were examined under a fluorescence microscope (Apotom) at 488 nm excitation wavelength. […]

## Nc1ncnn2c1c(-c1cc(F)c(CO)c(F)c1)cc2[C@H]1CC[C@H](O)CC1 [Example 7, trans-4-[4-Amino-5-[3,5-difluoro-4-(hydroxymethyl)phenyl]pyrrolo[2,1-f][1,2,4]triazin-7-yl]-cyclohexanol]
[1]; aqueous vehicle
  vascular leakage [HRA score]: 1.49 ± 0.24 HRA score
  choroidal neovascularisation lesion size: 6.14 ± 1.60 μm^2 × 10 000
[1]; paraffin vehicle
  vascular leakage [HRA score]: 1.52 ± 0.21 HRA score
  choroidal neovascularisation lesion size: 6.21 ± 0.99 μm^2 × 10 000

## Nc1ncnn2c([C@@H]3CCCNC3)cc(-c3cc(F)c(CO)c(F)c3)c12 [Example 11, (4-{4-Amino-7-[(3R)-piperidin-3-yl]pyrrolo[2,1-f][1,2,4]triazin-5-yl}-2,6-difluorophenyl)methanol]
[2]; angiography day 21, score 0-3
  vascular leakage [angiography score]: 0.68 ± 0.35 angiography score
[2]; day 23
  choroidal neovascularisation lesion volume: 3.48 ± 0.40 μm^3 × 100 000
[1]; aqueous vehicle
  vascular leakage [HRA score]: 1.66 ± 0.29 HRA score
  choroidal neovascularisation lesion size: 5.50 ± 1.38 μm^2 × 10 000
[1]; paraffin vehicle
  vascular leakage [HRA score]: 1.41 ± 0.29 HRA score
  choroidal neovascularisation lesion size: 6.45 ± 1.63 μm^2 × 10 000
